Results reported in publication PMC12079475, “Identification, validation, and characterization of approved and investigational drugs interfering with the SARS‐CoV‐2 endoribonuclease Nsp15” (Protein Science : A Publication of the Protein Society, 2025).
Read-outs that look alike come from different tables or passages of the source.

What was measured:
SARS‐CoV‐2 Nsp15 [1] = target: T1, SARS‐CoV‐2 Nsp15 (Severe acute respiratory syndrome coronavirus 2, UniProt P0DTD1); experiment: biochemical
SARS‐CoV‐2 Nsp15 [2] = target: T1, SARS‐CoV‐2 Nsp15; experiment: biochemical; assay type: biochemical; conditions: for Inhibition % +L-Cys 10 µM / inhibition at 10 µM: L-cysteine buffer; for inhibition at 10 µM: read-out: Inhibition % +L-Cys 10 µM; for loss of the inhibition potency in L‐cysteine buffer: 1 mM L‐cysteine buffer compared with DTT buffer
Nsp15 = Nsp15 (Severe acute respiratory syndrome coronavirus 2, UniProt P0DTD1)
[3] = 1 mM DTT buffer, confidence interval in brackets, read-out: IC50 + DTT (μM) (CI in μM)
[4] = DTT buffer (Table S1), read-out: IC50 +DTT
[5] = hit confirmation, 10 µM, DTT buffer
[6] = primary screen, 10 µM (Table S1)
[7] = primary screen, 10 μM compound, 1 mM DTT buffer, normalized to 50 μM Congo red (100%) and DMSO (0%)
[8] = 1 mM L-cysteine buffer, confidence interval in brackets, read-out: IC50 + L‐Cys (μM) (CI in μM)
[9] = L-cysteine buffer (Table S1), read-out: IC50 +L-Cys
[10] = hit confirmation, 10 µM, DTT buffer, read-out: HC inhibition % +DTT 10 µM
[11] = primary screen, 10 µM (Table S1), read-out: PS Inhibition % 10 µM
[12] = primary screen, 10 μM compound, 1 mM DTT buffer, normalized to 50 μM Congo red (100%) and DMSO (0%), read-out: PS inhibition % 10 μM (single point measurement)

Compound | IC50 (SARS‐CoV‐2 Nsp15 [1]; [3]) | IC50 (SARS‐CoV‐2 Nsp15 [1]; [4]) | HC inhibition % +DTT 10 µM (SARS‐CoV‐2 Nsp15 [1]; [5]) | PS Inhibition % 10 µM (SARS‐CoV‐2 Nsp15 [1]; [6]) | PS inhibition % 10 μM (single point measurement) (SARS‐CoV‐2 Nsp15 [1]; [7]) | Inhibition % +L-Cys 10 µM (SARS‐CoV‐2 Nsp15 [2]) | IC50 (SARS‐CoV‐2 Nsp15 [2]; [8]) | IC50 (SARS‐CoV‐2 Nsp15 [2]; [9]) | ΔT m°C nDSF (Nsp15) | inhibition at 10 µM (SARS‐CoV‐2 Nsp15 [1]; [10]) | inhibition at 10 µM (SARS‐CoV‐2 Nsp15 [1]; [11]) | inhibition at 10 µM (SARS‐CoV‐2 Nsp15 [1]; [12]) | inhibition at 10 µM (SARS‐CoV‐2 Nsp15 [2]) | loss of the inhibition potency in L‐cysteine buffer (SARS‐CoV‐2 Nsp15 [2])
CN[C@H](CC(C)C)C(=O)N[C@H]1C(=O)N[C@@H](CC(N)=O)C(=O)N[C@H]2C(=O)N[C@H]3C(=O)N[C@H](C(=O)N[C@H](C(=O)O)c4cc(O)cc(O)c4-c4cc3ccc4O)[C@H](O[C@H]3C[C@](C)(N)[C@@H](O)[C@H](C)O3)c3ccc(c(Cl)c3)Oc3cc2cc(c3O[C@@H]2O[C@H](CO)[C@@H](O)[C@H](O)[C@H]2O[C@H]2C[C@](C)(NCc3ccc(-c4ccc(Cl)cc4)cc3)[C@@H](O)[C@H](C)O2)Oc2ccc(cc2Cl)[C@H]1O.O=P(O)(O)O.O=P(O)(O)O [Oritavancin (diphosphate)] | 2.5 µM | 2.53 µM | 92,52% | 86,71% | 86.7% | 91,07% | 1.2 µM | 1.24 µM | 0 °C | – | – | – | – | –
C/C(=N\NC(=N)N)c1cc(NC(=O)CCCCCCCCC(=O)Nc2cc(/C(C)=N/NC(=N)N)cc(/C(C)=N/NC(=N)N)c2)cc(/C(C)=N/NC(=N)N)c1 [Semapimod] | 0.6 µM | 0.61 µM | 99,81% | 106,91% | 106.9% | 100,99% | 1 µM | 1.01 µM | – | – | – | – | – | –
CN(C)CCNc1nc2cc(O)ccc2c2c1C(=O)c1ccccc1-2.Cl.Cl [TAS‐103 (dihydrochloride), 6‐[2‐(dimethylamino)ethylamino]‐ 3‐hydroxy‐7H‐indeno[2,1‐C]quinolin‐7‐one dihydrochloride] | 6.6 µM | 6.55 µM | – | – | – | – | – | – | 0.6 °C | 63.6% | 63.4% | 63.4% | -33.9% | more than 50%
Cc1cc2nc3ccc(N(C)C)cc3[s+]c2cc1N [Tolonium chloride] | 1.7 µM | 1.65 µM | – | – | – | – | 1.3 µM | 1.34 µM | – | 76.5% | 72% | 72% | 77.8% | –
COc1cc2c(NC3CCN(C)CC3)nc(N3CCCN(C)CC3)nc2cc1OCCCN(C)C [UNC0224] | 2.6 µM | 2.57 µM | – | – | – | – | 4 µM | – | – | 73.9% | 70.6% | 70.6% | 83.2% | –
COc1cc2c(NC3CCN(C)CC3)nc(N3CCCN(C)CC3)nc2cc1OCCOCCN(C)C [UNC0321] | 3.9 µM | 3.89 µM | – | – | – | – | 3.2 µM | 3.21 µM | – | 77.6% | 64% | 63.9% | 72.9% | –
COc1cc2c(NC3CCN(CC4CCCCC4)CC3)nc(N3CCCN(C(C)C)CC3)nc2cc1OCCCN1CCCCC1 [UNC0631] | 2.2 µM | 2.21 µM | – | – | – | – | 2.5 µM | 2.54 µM | – | 71.4% | 84.8% | 84.8% | 79.3% | –
COc1cc2c(NC3CCN(C(C)C)CC3)nc(C3CCCCC3)nc2cc1OCCCN1CCCC1 [UNC0638] | 2.8 µM | 2.84 µM | – | – | – | – | 4.8 µM | 4.77 µM | – | 69.5% | 56.7% | 56.7% | 69.9% | –
CC1(C)CCC2=C(O1)C(=O)c1ccccc1C2=O [alphaLapachone] | 2.2 µM | 2.15 µM | – | – | – | – | – | – | – | 82.8% | 76% | 76% | 28.6% | more than 50%
BVT‐948 | 0.4 µM | 0.41 µM | 84,54% | 72,99% | 72.9% | -3,98% | – | – | – | – | – | – | – | more than 50%
